{
  "source": "paper PMC5931475",
  "about": "“Deciphering the molecular determinants of cholinergic anthelmintic sensitivity in nematodes: When novel functional validation approaches highlight major differences between the model Caenorhabditis elegans and parasitic species” (PLoS Pathogens, 2018)",
  "key": {"[1]": {"tested_on": "composite Cel-L-AChR with Hco-ACR-8 (29/38/63/L1 + Hco-ACR-8)", "set-up": "species or system Xenopus laevis oocytes", "conditions": "Imax as % of 100 uM ACh response; agonist"}, "[2]": {"tested_on": "T1, composite Cel-L-AChR with Asu-ACR-8 (29/38/63/L1 + Asu-ACR-8)", "T1 construct": "mixed-species complex of whole subunits; cRNA in Xenopus laevis oocytes with C. elegans RIC-3, UNC-50, UNC-74; LEV-8 replaced by A. suum ACR-8", "T1 sequence (A0A2I6TEN1 25-521)": "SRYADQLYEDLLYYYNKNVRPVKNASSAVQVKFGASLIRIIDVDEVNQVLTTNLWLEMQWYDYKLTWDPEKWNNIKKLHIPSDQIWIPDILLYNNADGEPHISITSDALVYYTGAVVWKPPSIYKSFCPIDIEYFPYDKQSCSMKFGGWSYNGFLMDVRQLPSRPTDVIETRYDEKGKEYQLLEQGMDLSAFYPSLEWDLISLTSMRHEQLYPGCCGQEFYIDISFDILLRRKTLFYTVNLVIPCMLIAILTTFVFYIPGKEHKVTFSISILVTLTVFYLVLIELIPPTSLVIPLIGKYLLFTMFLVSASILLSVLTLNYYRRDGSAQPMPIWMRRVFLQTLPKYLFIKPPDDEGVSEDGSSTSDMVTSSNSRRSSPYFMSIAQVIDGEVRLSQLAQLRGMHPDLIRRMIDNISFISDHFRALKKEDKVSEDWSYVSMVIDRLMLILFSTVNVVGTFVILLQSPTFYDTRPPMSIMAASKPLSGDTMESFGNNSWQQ", "T1 sequence (Q23022 17-511, further chain)": "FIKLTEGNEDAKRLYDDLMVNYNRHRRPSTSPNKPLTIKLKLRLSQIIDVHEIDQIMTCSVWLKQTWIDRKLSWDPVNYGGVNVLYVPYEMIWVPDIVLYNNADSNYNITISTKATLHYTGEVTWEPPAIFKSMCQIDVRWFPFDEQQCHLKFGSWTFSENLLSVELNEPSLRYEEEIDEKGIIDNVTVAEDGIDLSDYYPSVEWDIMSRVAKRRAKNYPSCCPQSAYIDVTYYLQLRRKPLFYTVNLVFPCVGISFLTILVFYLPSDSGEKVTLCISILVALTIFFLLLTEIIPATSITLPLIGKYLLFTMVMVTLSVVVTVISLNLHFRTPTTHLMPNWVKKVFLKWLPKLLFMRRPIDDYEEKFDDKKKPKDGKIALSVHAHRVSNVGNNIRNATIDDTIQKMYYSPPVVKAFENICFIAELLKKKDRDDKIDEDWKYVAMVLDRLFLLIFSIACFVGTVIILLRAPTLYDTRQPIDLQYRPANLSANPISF", "T1 sequence (Q9N587 24-502, further chain)": "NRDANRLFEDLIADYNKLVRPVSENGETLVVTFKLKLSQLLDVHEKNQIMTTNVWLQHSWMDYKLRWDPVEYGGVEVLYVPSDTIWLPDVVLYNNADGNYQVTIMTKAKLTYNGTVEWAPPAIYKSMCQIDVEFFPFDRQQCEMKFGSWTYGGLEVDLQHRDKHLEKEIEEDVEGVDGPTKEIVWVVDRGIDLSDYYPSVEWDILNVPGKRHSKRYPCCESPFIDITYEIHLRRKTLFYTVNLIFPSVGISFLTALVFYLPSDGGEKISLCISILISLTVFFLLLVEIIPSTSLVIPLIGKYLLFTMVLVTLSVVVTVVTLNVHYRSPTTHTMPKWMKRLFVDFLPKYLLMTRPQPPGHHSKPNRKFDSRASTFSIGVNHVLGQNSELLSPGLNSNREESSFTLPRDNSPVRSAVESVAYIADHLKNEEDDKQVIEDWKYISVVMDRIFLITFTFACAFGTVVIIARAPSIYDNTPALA", "T1 sequence (P48181 27-493, further chain)": "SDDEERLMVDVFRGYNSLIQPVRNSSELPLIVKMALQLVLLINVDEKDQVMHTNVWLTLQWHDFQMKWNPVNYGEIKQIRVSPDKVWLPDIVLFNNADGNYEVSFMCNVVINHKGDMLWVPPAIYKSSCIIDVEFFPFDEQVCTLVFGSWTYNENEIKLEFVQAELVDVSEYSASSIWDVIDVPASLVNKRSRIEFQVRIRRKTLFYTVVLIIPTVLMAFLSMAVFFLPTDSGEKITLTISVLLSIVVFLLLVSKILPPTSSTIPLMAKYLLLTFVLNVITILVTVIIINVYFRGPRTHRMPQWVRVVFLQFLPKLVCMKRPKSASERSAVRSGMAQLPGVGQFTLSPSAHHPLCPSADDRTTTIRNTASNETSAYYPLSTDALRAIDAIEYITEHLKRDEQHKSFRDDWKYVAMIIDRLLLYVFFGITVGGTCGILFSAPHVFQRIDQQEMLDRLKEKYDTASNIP", "T1 sequence (Q27218 32-507, further chain)": "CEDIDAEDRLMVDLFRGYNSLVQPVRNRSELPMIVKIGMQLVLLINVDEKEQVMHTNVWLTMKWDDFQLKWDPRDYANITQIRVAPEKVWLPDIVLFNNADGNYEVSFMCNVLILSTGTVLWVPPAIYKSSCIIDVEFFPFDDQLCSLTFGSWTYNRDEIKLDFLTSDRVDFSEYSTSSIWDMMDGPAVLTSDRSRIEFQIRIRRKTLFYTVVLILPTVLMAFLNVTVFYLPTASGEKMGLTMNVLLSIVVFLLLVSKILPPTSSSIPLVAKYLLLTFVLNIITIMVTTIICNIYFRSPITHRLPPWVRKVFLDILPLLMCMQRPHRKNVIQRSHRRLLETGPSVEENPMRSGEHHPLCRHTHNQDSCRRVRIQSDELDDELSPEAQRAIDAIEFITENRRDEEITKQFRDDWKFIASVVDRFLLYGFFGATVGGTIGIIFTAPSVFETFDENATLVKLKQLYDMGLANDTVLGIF", "set-up": "species or system Xenopus laevis oocytes; Agonist-evoked currents in cRNA-injected oocytes, concentration-response normalized to 100 uM ACh", "conditions": "Imax as % of 100 uM ACh response; agonist", "excerpt": "(§1) The C. elegans L-AChR can be robustly expressed in Xenopus oocytes by co-expressing cRNAs from the five L-AChR subunits (UNC-38, UNC-63, UNC-29, LEV-1 and LEV-8) in combination with cRNA encoding three ancillary proteins (UNC-74, UNC-50 and RIC-3). Noticeably, the absence of any one of these AChR subunits or ancillary proteins from the injected cRNA mix leads to the loss of expression of functional receptor highlighting their major individual requirement. Taking advantage of this, we complemented the Cel-L-AChR by replacing the Cel-LEV-8 by ACR-8 subunits from distinct parasitic nematode species. As a preliminary set of experiments, cRNAs encoding ACR-8 from parasitic nematodes were micro-injected with the three ancillary proteins in order to test their ability to form a homomeric channel. […] Therefore, cRNAs encoding Cel-UNC-38, Cel-UNC-63, Cel-UNC-29, Cel-LEV-1, Cel-UNC-74, Cel-UNC-50 and Cel-RIC-3 in combination with either Hco-ACR-8 / Ode-ACR-8 / Asu-ACR-8 / Dim-ACR-8 / Min-ACR-8 were co-injected into Xenopus oocytes. Three days after injection, each of these combinations produced robust responses to 100μM ACh in oocytes (S3 Fig). Similarly, application of 100μM levamisole (Lev) elicited a response for all complemented Cel-L-AChRs. Dose response curves were generated for both ACh and Lev in complemented L-AChRs containing ACR-8 subunits from parasitic species (Fig 2 and Table 1). In comparison to the C. elegans L-AChR, we observed a drastic reduction of the ACh EC50 values in the composite L-AChRs complemented with Hco-ACR-8, Ode-ACR-8, Asu-ACR-8 and Dim-ACR-8. […] A. Representation of the putative arrangement of the C. elegans L-AChR subunits expressed in Xenopus oocytes and dose-response relationships for ACh (red triangle, n = 8) and Lev (white circle, n = 8). B-F. Representation of the putative subunit arrangement of the composite C. elegans L-AChRs including Cel-UNC-29, Cel-UNC-38, Cel-UNC-63, Cel-LEV-1 and the ACR-8 subunit from a parasitic nematode species: H. contortus ACR-8 (B), O. dentatum ACR-8 (C), A. suum ACR-8 (D), D. immitis ACR-8 (E) and M. incognita ACR-8 (F). Dose-response relationships for ACh and Lev are indicated by red triangles (n = 5–11) and white circles (n = 4–9), respectively. G-H. Representation of the putative subunit arrangement of the composite C. elegans L-AChRs with Hco-UNC-38 replacing Cel-UNC-38 (G) or Hco-UNC-63 replacing Cel-UNC-63 (H). Dose-response relationships for ACh and Lev are indicated by red triangles (n = 7–10) and white circles (n = 7–9), respectively. All responses are normalized to 100μM ACh. Results are shown as the mean ± se. […]"}, "[3]": {"tested_on": "T2, Cel-L-AChR (29/38/63/L1 + Cel-LEV-8)", "T2 construct": "gene unc-38; full-length subunits from cRNA in Xenopus laevis oocytes with ancillary C. elegans RIC-3, UNC-50, UNC-74; heteropentamer", "T2 sequence (Q23022 17-511)": "as the sequence (Q23022 17-511, further chain) above", "T2 sequence (Q9N587 24-502, further chain)": "as the sequence (Q9N587 24-502, further chain) above", "T2 sequence (P48181 27-493, further chain)": "as the sequence (P48181 27-493, further chain) above", "T2 sequence (Q27218 32-507, further chain)": "as the sequence (Q27218 32-507, further chain) above", "T2 sequence (Q93329 26-531, further chain)": "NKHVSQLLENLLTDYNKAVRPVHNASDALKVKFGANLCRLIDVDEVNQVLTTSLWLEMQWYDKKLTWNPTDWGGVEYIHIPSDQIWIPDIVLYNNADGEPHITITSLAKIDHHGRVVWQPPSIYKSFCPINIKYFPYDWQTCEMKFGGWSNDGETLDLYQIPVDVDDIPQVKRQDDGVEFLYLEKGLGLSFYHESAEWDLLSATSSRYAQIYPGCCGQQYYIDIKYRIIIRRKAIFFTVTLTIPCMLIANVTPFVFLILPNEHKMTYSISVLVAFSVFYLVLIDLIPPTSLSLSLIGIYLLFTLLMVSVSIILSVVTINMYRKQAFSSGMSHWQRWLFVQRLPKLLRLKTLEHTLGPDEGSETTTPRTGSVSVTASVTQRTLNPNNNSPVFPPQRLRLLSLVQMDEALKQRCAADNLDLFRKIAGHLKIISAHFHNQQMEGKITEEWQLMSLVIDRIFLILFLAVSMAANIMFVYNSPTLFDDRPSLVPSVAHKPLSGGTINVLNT", "set-up": "species or system Xenopus laevis oocytes; Agonist-evoked currents in cRNA-injected oocytes, concentration-response normalized to 100 uM ACh", "conditions": "Imax as % of 100 uM ACh response; agonist", "excerpt": "as §1"}, "[4]": {"tested_on": "T3, composite Cel-L-AChR with Hco-UNC-63 (29/38/L1/L8 + Hco-UNC-63)", "T3 construct": "mixed-species complex of whole subunits; cRNA in Xenopus laevis oocytes with ancillary RIC-3, UNC-50, UNC-74; Cel-UNC-63 replaced by H. contortus UNC-63", "T3 sequence (D6MYF4 22-504)": "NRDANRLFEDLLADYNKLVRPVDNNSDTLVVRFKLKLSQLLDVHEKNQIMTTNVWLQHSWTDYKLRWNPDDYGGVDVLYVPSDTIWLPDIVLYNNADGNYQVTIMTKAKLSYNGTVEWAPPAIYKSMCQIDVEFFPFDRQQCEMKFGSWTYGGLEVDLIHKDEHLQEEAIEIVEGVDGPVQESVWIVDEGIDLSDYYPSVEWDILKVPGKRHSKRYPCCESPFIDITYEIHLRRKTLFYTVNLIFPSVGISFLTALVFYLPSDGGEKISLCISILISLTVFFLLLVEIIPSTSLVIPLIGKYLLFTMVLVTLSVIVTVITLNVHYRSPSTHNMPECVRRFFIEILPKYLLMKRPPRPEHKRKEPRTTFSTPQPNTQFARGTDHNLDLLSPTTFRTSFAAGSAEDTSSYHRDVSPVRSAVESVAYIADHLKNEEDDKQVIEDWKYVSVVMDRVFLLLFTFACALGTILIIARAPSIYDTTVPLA", "T3 sequence (Q23022 17-511, further chain)": "as the sequence (Q23022 17-511, further chain) above", "T3 sequence (P48181 27-493, further chain)": "as the sequence (P48181 27-493, further chain) above", "T3 sequence (Q27218 32-507, further chain)": "as the sequence (Q27218 32-507, further chain) above", "T3 sequence (Q93329 26-531, further chain)": "as the sequence (Q93329 26-531, further chain) above", "set-up": "species or system Xenopus laevis oocytes; Agonist-evoked currents in cRNA-injected oocytes, concentration-response normalized to 100 uM ACh", "conditions": "Imax as % of 100 uM ACh response; agonist", "excerpt": "as §1"}, "[5]": {"tested_on": "T4, composite Cel-L-AChR with Min-ACR-8 (29/38/63/L1 + Min-ACR-8)", "T4 construct": "mixed-species complex of whole subunits; cRNA in Xenopus laevis oocytes with C. elegans RIC-3, UNC-50, UNC-74; LEV-8 replaced by M. incognita ACR-8", "T4 sequence (A0A2I6TEK4 19-527)": "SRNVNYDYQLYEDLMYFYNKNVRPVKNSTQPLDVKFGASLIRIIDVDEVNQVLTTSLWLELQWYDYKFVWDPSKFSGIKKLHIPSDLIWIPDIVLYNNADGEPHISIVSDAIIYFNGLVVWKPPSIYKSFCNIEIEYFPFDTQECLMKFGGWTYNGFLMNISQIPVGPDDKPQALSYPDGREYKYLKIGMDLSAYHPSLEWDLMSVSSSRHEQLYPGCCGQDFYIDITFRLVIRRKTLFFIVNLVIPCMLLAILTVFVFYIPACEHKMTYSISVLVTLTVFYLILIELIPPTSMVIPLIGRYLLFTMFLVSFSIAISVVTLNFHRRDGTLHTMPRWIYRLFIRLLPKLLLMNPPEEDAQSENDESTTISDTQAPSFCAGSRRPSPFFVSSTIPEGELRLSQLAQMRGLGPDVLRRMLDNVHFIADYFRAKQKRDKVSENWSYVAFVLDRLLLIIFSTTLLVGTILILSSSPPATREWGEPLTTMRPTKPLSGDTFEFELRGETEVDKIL", "T4 sequence (Q23022 17-511, further chain)": "as the sequence (Q23022 17-511, further chain) above", "T4 sequence (Q9N587 24-502, further chain)": "as the sequence (Q9N587 24-502, further chain) above", "T4 sequence (P48181 27-493, further chain)": "as the sequence (P48181 27-493, further chain) above", "T4 sequence (Q27218 32-507, further chain)": "as the sequence (Q27218 32-507, further chain) above", "set-up": "species or system Xenopus laevis oocytes; Agonist-evoked currents in cRNA-injected oocytes, concentration-response normalized to 100 uM ACh", "conditions": "Imax as % of 100 uM ACh response; agonist", "excerpt": "as §1"}, "[6]": {"tested_on": "composite Cel-L-AChR with Ode-ACR-8 (29/38/63/L1 + Ode-ACR-8)", "set-up": "species or system Xenopus laevis oocytes", "conditions": "Imax as % of 100 uM ACh response; agonist"}, "[7]": {"biological_target": "T1, composite Cel-L-AChR with Asu-ACR-8 (29/38/63/L1 + Asu-ACR-8)", "experiment": "two-electrode voltage clamp, Xenopus oocytes", "type": "cell-based, Caenorhabditis elegans; Ascaris suum", "conditions": "read-out: Lev EC50; agonist; responses normalized to 100 μM ACh"}, "[8]": {"biological_target": "T3, composite Cel-L-AChR with Hco-UNC-63 (29/38/L1/L8 + Hco-UNC-63)", "experiment": "two-electrode voltage clamp, Xenopus oocytes", "type": "cell-based, Caenorhabditis elegans; Haemonchus contortus", "conditions": "read-out: Lev EC50; agonist; responses normalized to 100 μM ACh"}, "[9]": {"biological_target": "T5, composite Cel-L-AChR with Ode-ACR-8 (29/38/63/L1 + Ode-ACR-8)", "T5 construct": "mixed-species complex of whole subunits; cRNA in Xenopus laevis oocytes with C. elegans RIC-3, UNC-50, UNC-74; LEV-8 replaced by O. dentatum ACR-8", "experiment": "two-electrode voltage clamp, Xenopus oocytes", "type": "cell-based, Caenorhabditis elegans; Oesophagostomum dentatum", "conditions": "read-out: Lev EC50; full agonist; responses normalized to 100 μM ACh"}, "[10]": {"tested_on": "composite Cel-L-AChR with Hco-UNC-38 (29/63/L1/L8 + Hco-UNC-38)", "set-up": "species or system Xenopus laevis oocytes", "conditions": "Imax as % of 100 uM ACh response; agonist"}, "[11]": {"biological_target": "T4, composite Cel-L-AChR with Min-ACR-8 (29/38/63/L1 + Min-ACR-8)", "experiment": "two-electrode voltage clamp, Xenopus oocytes", "type": "cell-based, Caenorhabditis elegans; Meloidogyne incognita", "conditions": "agonist; responses normalized to 100 μM ACh; read-out: Lev EC50"}, "[12]": {"biological_target": "T2, Cel-L-AChR (29/38/63/L1 + Cel-LEV-8)", "experiment": "two-electrode voltage clamp, Xenopus oocytes", "type": "cell-based, Caenorhabditis elegans", "conditions": "partial agonist; responses normalized to 100 μM ACh"}, "[13]": {"biological_target": "T6, composite Cel-L-AChR with Hco-UNC-38 (29/63/L1/L8 + Hco-UNC-38)", "T6 construct": "mixed-species complex of whole subunits; cRNA in Xenopus laevis oocytes with ancillary RIC-3, UNC-50, UNC-74; Cel-UNC-38 replaced by H. contortus UNC-38", "experiment": "two-electrode voltage clamp, Xenopus oocytes", "type": "cell-based, Caenorhabditis elegans; Haemonchus contortus", "conditions": "read-out: Lev EC50; agonist; responses normalized to 100 μM ACh"}, "[14]": {"biological_target": "T7, composite Cel-L-AChR with Hco-ACR-8 (29/38/63/L1 + Hco-ACR-8)", "T7 construct": "mixed-species complex of whole subunits; cRNA in Xenopus laevis oocytes with C. elegans RIC-3, UNC-50, UNC-74; LEV-8 replaced by H. contortus ACR-8", "experiment": "two-electrode voltage clamp, Xenopus oocytes", "type": "cell-based, Caenorhabditis elegans; Haemonchus contortus", "conditions": "read-out: Lev EC50; full agonist; responses normalized to 100 μM ACh"}},
  "data": [
    {"smiles": "c1ccc([C@H]2CN3CCSC3=N2)cc1", "note": "[levamisole]", "values": [
      {"measurement": "Lev Imax", "setting": "[1]", "result": "109.5 ±20.7", "unit": "%"},
      {"measurement": "Lev Imax", "setting": "[2]", "result": "51.6 ±7.0", "unit": "%"},
      {"measurement": "Lev Imax", "setting": "[3]", "result": "49.1±10.2", "unit": "%"},
      {"measurement": "Lev Imax", "setting": "[4]", "result": "55.9 ±9.4", "unit": "%"},
      {"measurement": "Lev Imax", "setting": "[5]", "result": "33.9 ±13.9", "unit": "%"},
      {"measurement": "Lev Imax", "setting": "[6]", "result": "112.4 ±19.0", "unit": "%"},
      {"measurement": "EC50", "setting": "[7]", "result": "5.8 ± 1.2", "unit": "µM"},
      {"measurement": "EC50", "setting": "[8]", "result": "12.1 ± 1.2", "unit": "µM"},
      {"measurement": "EC50", "setting": "[9]", "result": "11.7 ± 1.3", "unit": "µM"},
      {"measurement": "Lev Imax", "setting": "[10]", "result": "51.1 ±4.5", "unit": "%"},
      {"measurement": "EC50", "setting": "[11]", "result": "10.1 ± 1.1", "unit": "µM"},
      {"measurement": "EC50", "setting": "[12]", "result": "6.4 ± 1.2", "unit": "µM"},
      {"measurement": "EC50", "setting": "[13]", "result": "13.5 ± 1.5", "unit": "µM"},
      {"measurement": "EC50", "setting": "[14]", "result": "2.7 ± 1.4", "unit": "µM"}
    ]}
  ]
}
